According to ChEMBL document CHEMBL1140378, “Fast small molecule similarity searching with multiple alignment profiles of molecules represented in one-dimension” (J Med Chem, 2005):

Legend:
Glucagon receptor [1] = target: T1, Glucagon receptor (Homo sapiens, UniProt P47871); assay: Antagonist activity against glucagon receptor; […]; assay type: functional
[2] = target: Mitogen-activated protein kinase 14 (Homo sapiens, UniProt Q16539); assay: Inhibitory activity against Mitogen-activated protein kinase 14, p38-alpha; No activity
Mitogen-activated protein kinase 14, sequence (Q16539 whole entry): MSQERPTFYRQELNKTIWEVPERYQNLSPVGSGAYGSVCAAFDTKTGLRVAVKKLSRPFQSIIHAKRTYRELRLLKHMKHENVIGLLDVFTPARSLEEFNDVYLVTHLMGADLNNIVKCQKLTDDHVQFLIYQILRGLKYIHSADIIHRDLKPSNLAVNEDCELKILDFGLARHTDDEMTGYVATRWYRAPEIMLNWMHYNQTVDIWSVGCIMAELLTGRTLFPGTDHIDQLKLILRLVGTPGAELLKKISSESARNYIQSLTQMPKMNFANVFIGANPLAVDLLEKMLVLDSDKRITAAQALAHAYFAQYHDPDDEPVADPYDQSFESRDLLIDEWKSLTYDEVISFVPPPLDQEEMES

Glucagon receptor [3] = target: T1, Glucagon receptor; assay: Antagonist activity against glucagon receptor; assay type: functional

T1 sequence (P47871 whole entry): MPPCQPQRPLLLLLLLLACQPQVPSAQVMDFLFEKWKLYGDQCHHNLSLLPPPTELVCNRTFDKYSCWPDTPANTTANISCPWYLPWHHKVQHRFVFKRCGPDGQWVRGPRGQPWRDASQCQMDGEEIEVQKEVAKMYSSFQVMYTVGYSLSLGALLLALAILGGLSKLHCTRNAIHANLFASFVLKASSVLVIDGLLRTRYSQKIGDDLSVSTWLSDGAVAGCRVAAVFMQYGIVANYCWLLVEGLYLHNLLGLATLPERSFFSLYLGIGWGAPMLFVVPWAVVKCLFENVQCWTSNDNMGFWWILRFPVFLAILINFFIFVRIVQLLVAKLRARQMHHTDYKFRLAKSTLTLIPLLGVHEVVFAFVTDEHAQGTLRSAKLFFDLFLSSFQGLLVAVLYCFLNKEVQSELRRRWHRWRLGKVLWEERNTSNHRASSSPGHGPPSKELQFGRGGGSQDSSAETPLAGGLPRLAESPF

Row | IC50 (Glucagon receptor [1]) | IC50 [2] | IC50 (Glucagon receptor [3]) | Structure (SMILES)
1 | Not Active |  |  | O=C(O)c1ccc(-c2cc(-c3ccc(F)cc3)c(-c3ccncc3)[nH]2)cc1
2 |  | Not Active | 32 nM | CC(C)c1cc(-c2ccc(Cl)cc2)[nH]c1-c1ccncc1
